Reference: PMC11173529, “Structure–Activity Relationship Studies in a Series of Xanthine Inhibitors of SLACK Potassium Channels” (Molecules, 2024)

What was measured:
Type in all cases: cell-based
[1] = biological target: T1, TASK-1 (Homo sapiens, UniProt O14649); experiment: Tl+-flux selectivity panel in HEK-293 cells: TASK-1; details: HEK293, 10 µM test compound, relative to control bepridil, read-out: Percent Inhibition ± SEM
T1 construct: expressed in transfected cells; host or cells: HEK293
T1 sequence (O14649 whole entry, species assumed): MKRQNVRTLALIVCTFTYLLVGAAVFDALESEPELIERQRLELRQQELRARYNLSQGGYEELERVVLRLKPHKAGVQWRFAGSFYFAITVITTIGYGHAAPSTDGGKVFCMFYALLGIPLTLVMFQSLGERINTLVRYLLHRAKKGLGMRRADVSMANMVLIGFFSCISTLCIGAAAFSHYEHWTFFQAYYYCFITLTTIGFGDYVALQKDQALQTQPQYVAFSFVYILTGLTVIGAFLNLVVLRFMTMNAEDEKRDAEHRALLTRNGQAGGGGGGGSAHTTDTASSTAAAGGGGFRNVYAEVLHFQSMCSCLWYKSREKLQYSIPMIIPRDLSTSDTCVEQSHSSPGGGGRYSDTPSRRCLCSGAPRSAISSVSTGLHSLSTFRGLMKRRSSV
Protocol: (§1) With a handful of analogs that offered improved SLACK potency relative to hit compound 8, we next proceeded to investigate the ancillary pharmacology of such compounds, both with respect to other Slo family members as well as versus a spectrum of diverse ion channels (Table 5). Thus, we screened four compounds (32, 48, 70, and 71) at 10 µM in our in-house selectivity panel of Tl^+-flux assays in HEK-293 cells stably expressing the target of interest. […] Some valuable SAR was noted as well. […] Reduction of inhibition at Maxi-K α1/β4 also followed. This SAR will be important to bear in mind for continued optimization within this series. […] Of particular note is the lack of significant hERG activity in this series, as activity versus that counter-target has been an issue with other SLACK inhibitors.
(§2) Stably transfected monoclonal HEK293 cell lines expressing Slick, Maxi-K α1/β3, Maxi-K α1/β4, CaV3.2, GIRK 1/2, KV2.1, KV7.2, NaV1.7, and TASK-1 were generated as previously described. Stably transfected monoclonal HEK293 cell lines expressing hERG were generated as previously described. CHO-K1 cells expressing human Slack and disease-associated human Slack mutations, G288S and A934T, were generated by transfecting a PiggyBac TRE mammalian expression vector (VectorBuilder, Chicago, IL, USA) containing KCNT1. FuGENE 6 (Promega, Madison, WI, USA) transfection reagent and protocol, together with Opti-MEM (Thermo Fisher Scientific, Walkham, MA, USA), were utilized.
(§3) The Tl^+ flux assays were conducted as previously described with modifications optimized for individual cell lines as described below. Following removal of cell culture media, cells were loaded with Tl^+-sensitive dye loading solution containing Thallos-AM (ION Biosciences, San Marcos, TX, USA), 1.25 mM Probenecid, and 0.3% Pluronic F-127 (MilliporeSigma, Burlington, MA, USA), in assay buffer comprised of Hanks Balanced Salt Solution (HBSS) (Thermo Fisher Scientific, Waltham, MA, USA) and 20 mM HEPES (Corning, Corning, NY, USA) at room temperature for one-hour. Dye loading solution was replaced with 20 μL/well of assay buffer prior to assaying. Cell plates were then loaded onto a Panoptic kinetic imaging plate reader (WaveFront Biosciences, Franklin, TN, USA). Data were acquired at 5 Hz (excitation 482 ± 35 nm, emission 536 ± 40 nm) for 10 s, at which time 20 μL/well of test compounds in assay buffer at 2-fold above the desired final concentration was added and allowed to incubate for 120 s. Next, 10 μL/well of Tl^+ stimulus buffer (129 mM Na gluconate, 1.2 mM CaSO4, 1 MgSO4, 1 mM Na2HPO4, 4.17 mM NaHCO3, 5.56 mM glucose, 2.5 mM Tl2SO4, and 10 mM HEPES pH 7.3) was added. Imaging was concluded after an additional 120 s.

[2] = biological target: T2, GIRK 1/2 (Homo sapiens, UniProt P48051+P48549); experiment: Tl+-flux selectivity panel in HEK-293 cells: GIRK 1/2; details: HEK293, 10 µM test compound, relative to control SCH23390, read-out: Percent Inhibition ± SEM
T2 construct: expressed in transfected cells; host or cells: HEK293
T2 sequence (P48549 1-501): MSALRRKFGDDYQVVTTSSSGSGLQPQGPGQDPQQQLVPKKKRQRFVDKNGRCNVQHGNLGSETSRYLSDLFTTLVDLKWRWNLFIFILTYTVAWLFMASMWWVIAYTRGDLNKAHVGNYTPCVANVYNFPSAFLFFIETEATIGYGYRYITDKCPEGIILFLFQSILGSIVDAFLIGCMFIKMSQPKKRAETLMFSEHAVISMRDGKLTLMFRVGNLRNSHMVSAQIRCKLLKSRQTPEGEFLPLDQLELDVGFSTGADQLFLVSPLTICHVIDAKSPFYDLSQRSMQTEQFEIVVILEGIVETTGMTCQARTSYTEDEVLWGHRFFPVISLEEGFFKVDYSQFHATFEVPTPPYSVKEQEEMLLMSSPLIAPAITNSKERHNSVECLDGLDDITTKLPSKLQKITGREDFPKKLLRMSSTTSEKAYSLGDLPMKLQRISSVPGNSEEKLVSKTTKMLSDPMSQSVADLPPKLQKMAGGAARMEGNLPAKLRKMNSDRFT
T2 sequence (P48051 1-423): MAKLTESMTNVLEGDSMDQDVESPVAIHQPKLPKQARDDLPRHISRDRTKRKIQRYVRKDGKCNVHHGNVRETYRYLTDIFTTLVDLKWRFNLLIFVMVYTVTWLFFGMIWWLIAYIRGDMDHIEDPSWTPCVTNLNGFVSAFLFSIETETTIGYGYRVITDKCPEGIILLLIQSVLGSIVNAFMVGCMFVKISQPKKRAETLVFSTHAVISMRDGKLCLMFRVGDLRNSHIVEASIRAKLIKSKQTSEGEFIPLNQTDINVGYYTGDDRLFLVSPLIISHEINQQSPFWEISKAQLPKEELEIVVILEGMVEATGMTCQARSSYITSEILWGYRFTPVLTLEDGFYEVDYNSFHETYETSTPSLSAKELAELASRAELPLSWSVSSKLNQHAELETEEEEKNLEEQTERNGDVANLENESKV
Protocol: as §1, §2, §3

[3] = biological target: T3, NaV1.7 (Homo sapiens, UniProt Q15858); experiment: Tl+-flux selectivity panel in HEK-293 cells: NaV1.7; details: HEK293, 10 µM test compound, relative to control TC-N 1752, read-out: Percent Inhibition ± SEM
T3 construct: expressed in transfected cells; host or cells: HEK293
T3 sequence (Q15858 whole entry): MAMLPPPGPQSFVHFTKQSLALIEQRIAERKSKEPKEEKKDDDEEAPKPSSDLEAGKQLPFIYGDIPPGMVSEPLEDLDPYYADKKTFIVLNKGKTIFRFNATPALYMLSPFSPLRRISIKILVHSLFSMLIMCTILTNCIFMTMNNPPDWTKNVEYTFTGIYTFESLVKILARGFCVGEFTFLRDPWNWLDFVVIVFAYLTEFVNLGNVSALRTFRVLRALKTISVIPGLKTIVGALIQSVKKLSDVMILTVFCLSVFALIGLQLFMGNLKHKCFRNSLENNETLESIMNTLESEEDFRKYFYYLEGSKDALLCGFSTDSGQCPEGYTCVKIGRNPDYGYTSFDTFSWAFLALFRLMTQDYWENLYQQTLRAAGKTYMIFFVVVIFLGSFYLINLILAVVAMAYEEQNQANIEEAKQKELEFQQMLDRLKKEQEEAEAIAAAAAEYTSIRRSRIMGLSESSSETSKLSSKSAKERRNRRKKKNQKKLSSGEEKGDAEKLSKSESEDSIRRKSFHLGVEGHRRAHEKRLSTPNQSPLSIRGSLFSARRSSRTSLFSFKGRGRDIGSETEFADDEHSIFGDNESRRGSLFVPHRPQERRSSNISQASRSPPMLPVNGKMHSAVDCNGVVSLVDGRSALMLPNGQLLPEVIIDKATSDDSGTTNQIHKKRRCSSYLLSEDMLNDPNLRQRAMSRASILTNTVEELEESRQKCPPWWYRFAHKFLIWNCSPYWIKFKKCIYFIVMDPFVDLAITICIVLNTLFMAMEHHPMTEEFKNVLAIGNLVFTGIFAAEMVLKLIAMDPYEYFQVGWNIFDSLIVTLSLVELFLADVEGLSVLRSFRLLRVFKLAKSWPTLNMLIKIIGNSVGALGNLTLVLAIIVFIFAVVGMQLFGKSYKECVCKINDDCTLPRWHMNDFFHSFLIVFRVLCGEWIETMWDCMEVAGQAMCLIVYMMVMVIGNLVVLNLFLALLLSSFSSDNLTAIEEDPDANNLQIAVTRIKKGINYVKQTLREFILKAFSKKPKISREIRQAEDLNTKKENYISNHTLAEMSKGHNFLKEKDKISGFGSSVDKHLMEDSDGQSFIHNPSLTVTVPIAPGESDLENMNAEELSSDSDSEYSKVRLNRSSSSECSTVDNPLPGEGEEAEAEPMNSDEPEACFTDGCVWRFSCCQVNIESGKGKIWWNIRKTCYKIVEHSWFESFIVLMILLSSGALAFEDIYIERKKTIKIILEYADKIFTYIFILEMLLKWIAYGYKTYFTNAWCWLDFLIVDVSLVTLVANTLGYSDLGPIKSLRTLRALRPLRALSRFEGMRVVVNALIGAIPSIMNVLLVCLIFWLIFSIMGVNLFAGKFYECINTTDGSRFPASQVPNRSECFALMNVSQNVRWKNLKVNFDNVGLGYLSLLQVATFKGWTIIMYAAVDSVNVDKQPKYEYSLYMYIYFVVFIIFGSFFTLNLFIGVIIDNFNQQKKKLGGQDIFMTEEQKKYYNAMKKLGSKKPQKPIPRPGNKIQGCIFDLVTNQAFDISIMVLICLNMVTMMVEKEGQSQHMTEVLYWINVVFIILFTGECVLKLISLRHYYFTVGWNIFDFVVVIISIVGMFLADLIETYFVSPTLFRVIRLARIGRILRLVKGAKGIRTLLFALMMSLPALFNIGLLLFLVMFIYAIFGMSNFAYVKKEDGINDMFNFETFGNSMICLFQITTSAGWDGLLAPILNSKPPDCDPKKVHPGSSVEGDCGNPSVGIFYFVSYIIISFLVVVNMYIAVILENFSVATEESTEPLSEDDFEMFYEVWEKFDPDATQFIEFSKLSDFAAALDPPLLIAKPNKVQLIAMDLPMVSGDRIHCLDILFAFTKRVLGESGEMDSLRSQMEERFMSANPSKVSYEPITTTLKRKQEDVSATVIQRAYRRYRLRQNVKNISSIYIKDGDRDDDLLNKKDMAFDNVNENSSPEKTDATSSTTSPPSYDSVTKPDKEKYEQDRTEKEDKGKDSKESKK
Protocol: as §1, §2, §3

[4] = biological target: T4, CaV3.2 (Homo sapiens, UniProt O95180); experiment: Tl+-flux selectivity panel in HEK-293 cells: CaV3.2; details: HEK293, 10 µM test compound, relative to control bepridil, read-out: Percent Inhibition ± SEM
T4 construct: expressed in transfected cells; host or cells: HEK293
T4 sequence (O95180 whole entry): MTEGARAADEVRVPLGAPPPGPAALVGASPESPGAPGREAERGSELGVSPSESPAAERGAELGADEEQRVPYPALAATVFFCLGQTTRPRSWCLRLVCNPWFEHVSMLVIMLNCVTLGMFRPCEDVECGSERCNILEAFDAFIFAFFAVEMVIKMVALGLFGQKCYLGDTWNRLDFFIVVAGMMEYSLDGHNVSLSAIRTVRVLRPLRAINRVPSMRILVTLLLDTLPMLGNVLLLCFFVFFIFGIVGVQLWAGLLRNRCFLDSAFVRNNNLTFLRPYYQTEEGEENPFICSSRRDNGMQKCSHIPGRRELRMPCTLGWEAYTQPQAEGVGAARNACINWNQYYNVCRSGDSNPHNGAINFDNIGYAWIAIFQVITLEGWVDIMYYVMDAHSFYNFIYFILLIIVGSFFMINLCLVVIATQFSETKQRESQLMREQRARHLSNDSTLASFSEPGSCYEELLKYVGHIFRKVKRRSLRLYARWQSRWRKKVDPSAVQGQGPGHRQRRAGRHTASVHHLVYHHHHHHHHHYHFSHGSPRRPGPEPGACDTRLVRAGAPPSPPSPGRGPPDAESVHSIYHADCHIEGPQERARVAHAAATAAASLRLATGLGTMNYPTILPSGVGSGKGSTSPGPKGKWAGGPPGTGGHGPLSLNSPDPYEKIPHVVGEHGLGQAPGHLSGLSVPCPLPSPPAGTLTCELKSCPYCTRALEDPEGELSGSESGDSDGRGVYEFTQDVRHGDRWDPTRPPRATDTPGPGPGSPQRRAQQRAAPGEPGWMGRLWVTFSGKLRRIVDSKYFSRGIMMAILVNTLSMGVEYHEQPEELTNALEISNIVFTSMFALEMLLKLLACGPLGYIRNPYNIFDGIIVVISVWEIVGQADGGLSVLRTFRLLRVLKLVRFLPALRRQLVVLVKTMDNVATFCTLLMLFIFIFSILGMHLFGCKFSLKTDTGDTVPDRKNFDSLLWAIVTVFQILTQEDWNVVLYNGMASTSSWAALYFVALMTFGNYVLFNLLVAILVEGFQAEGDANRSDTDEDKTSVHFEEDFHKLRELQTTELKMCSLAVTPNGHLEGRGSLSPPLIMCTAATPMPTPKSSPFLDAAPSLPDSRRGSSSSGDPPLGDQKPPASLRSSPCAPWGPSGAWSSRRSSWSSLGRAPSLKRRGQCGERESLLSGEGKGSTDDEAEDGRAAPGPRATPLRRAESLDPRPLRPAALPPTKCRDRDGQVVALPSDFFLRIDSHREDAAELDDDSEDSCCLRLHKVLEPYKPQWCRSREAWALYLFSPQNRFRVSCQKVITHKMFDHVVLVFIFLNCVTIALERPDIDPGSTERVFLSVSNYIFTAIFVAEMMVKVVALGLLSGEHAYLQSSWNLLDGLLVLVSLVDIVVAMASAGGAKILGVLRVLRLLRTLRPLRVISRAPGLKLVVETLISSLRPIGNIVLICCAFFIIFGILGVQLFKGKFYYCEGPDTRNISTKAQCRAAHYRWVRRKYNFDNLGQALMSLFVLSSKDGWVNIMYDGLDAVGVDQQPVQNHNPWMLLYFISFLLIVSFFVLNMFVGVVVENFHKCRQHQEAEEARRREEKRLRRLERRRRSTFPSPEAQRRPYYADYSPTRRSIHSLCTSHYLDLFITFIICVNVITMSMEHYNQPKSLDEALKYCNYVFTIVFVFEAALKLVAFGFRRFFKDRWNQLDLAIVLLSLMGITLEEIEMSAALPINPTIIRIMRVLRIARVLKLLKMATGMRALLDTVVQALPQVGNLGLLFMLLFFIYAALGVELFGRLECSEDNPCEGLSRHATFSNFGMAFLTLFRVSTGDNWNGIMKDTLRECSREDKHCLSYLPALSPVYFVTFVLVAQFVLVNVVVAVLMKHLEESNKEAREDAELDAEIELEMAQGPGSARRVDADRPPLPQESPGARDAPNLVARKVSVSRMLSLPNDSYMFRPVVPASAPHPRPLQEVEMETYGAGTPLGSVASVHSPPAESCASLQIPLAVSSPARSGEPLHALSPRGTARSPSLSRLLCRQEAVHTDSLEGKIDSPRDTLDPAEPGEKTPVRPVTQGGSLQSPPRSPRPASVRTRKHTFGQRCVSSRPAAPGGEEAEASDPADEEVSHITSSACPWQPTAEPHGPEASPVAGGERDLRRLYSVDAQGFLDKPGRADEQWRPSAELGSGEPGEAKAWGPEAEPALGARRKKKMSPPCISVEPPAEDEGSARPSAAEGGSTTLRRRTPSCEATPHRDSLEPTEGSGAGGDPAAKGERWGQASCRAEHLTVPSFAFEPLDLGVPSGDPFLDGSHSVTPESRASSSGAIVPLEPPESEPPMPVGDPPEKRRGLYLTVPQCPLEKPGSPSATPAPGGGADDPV
Protocol: as §1, §2, §3

[5] = biological target: T5, Maxi-K α1/β4 (Homo sapiens, UniProt Q12791); experiment: Tl+-flux selectivity panel in HEK-293 cells: Maxi-K α1/β4; details: HEK293, 10 µM test compound, relative to control paxilline, read-out: Percent Inhibition ± SEM
T5 construct: expressed in transfected cells; host or cells: HEK293
Protocol: as §1, §2, §3

[6] = biological target: T6, Maxi-K α1/β3 (Homo sapiens, UniProt Q12791); experiment: Tl+-flux selectivity panel in HEK-293 cells: Maxi-K α1/β3; details: HEK293, 10 µM test compound, relative to control paxilline, read-out: Percent Inhibition ± SEM
T6 construct: expressed in transfected cells; host or cells: HEK293
Protocol: as §1, §2, §3

CN(Cc1cccc(F)c1)c1nc2c(c(=O)n(Cc3ccccc3)c(=O)n2C)n1C [Analog 48]
inhibition at 10 µM [1]: 24 ± 2.3%
inhibition at 10 µM [2]: 32 ± 3%
inhibition at 10 µM [3]: 39 ± 3.1%
inhibition at 10 µM [4]: 17 ± 4.2%
inhibition at 10 µM [5]: 42 ± 4.6%
inhibition at 10 µM [6]: 63 ± 1.2%

Cn1c(N(Cc2ccccc2)CC2CC2)nc2c1c(=O)n(Cc1ccccc1)c(=O)n2C [Analog 71]
inhibition at 10 µM [1]: 4.9 ± 1.5%
inhibition at 10 µM [2]: 12 ± 0.5%
inhibition at 10 µM [3]: 29 ± 3%
inhibition at 10 µM [4]: 24 ± 3.6%
inhibition at 10 µM [5]: 12 ± 3.9%
inhibition at 10 µM [6]: 17 ± 5.2%

CCCCN(Cc1ccccc1)c1nc2c(c(=O)n(Cc3ccccc3)c(=O)n2C)n1C [Analog 70]
inhibition at 10 µM [1]: 23 ± 2.9%
inhibition at 10 µM [2]: 9.2 ± 1.4%
inhibition at 10 µM [3]: 33 ± 1.4%
inhibition at 10 µM [4]: 16 ± 2.2%
inhibition at 10 µM [5]: 8.5 ± 2.1%
inhibition at 10 µM [6]: 34 ± 2.9%

COc1cccc(Cn2c(=O)c3c(nc(N(C)Cc4ccccc4)n3C)n(C)c2=O)c1 [Analog 32]
inhibition at 10 µM [1]: 17 ± 2.3%
inhibition at 10 µM [2]: 19 ± 1.7%
inhibition at 10 µM [3]: 41 ± 3.3%
inhibition at 10 µM [4]: 18 ± 1.6%
inhibition at 10 µM [5]: 48 ± 2%
inhibition at 10 µM [6]: 79 ± 1.4%
